Laboratory results as given in patent US20080221086A1, “Novel Inhibitors of Glutaminyl Cyclase” (PROBIODRUG AG, priority 2006, published 2008).
Like-named read-outs stand apart in the source and are kept apart here.

Target: hQC (Homo sapiens, UniProt Q16769)
Assay: Fluorometric assay of glutaminyl cyclase (QC) inhibition, H-Gln-βNA or H-Gln-AMC substrate
Format: biochemical
Description: All compounds were immediately tested regarding their activity as hQC inhibitors.
The purity of the compounds was determined by HPLC-MS. The IC50 value against hQC was measured using the fluorescent assay.
All measurements were performed with a BioAssay Reader HTS-7000Plus for microplates (Perkin Elmer) at 30° C. QC activity was evaluated fluorometrically using H-Gln-βNA. The samples consisted of 0.2 mM fluorogenic substrate, 0.25 U pyroglutamyl aminopeptidase (Unizyme, Hørsholm, Denmark) in 0.2 M Tris/HCl, pH 8.0 containing 20 mM EDTA and an appropriately diluted aliquot of QC in a final volume of 250 μl. Excitation/emission wavelengths were 320/410 nm. The assay reactions were initiated by addition of glutaminyl cyclase. QC activity was determined from a standard curve of β-naphthylamine under assay conditions. One unit is defined as the amount of QC catalyzing the formation of 1 μmol pGlu-βNA from H-Gln-βNA per minute under the described conditions.
In a second fluorometric assay, QC was activity was determined using H-Gln-AMC as substrate. Reactions were carried out at 30° C. utilizing the NOVOStar reader for microplates (BMG labtechnologies). The samples consisted of varying concentrations of the fluorogenic substrate, 0.1 U pyroglutamyl aminopeptidase (Qiagen) in 0.05 M Tris/HCl, pH 8.0 containing 5 mM EDTA and an appropriately diluted aliquot of QC in a final volume of 250 μl. Excitation/emission wavelengths were 380/460 nm. The assay reactions were initiated by addition of glutaminyl cyclase. QC activity was determined from a standard curve of 7-amino-4-methylcoumarin under assay conditions. The kinetic data were evaluated using GraFit software.
For inhibitor testing, the sample composition was the same as described above, except of the putative inhibitory compound added. For a rapid test of QC-inhibition, samples contained 4 mM of the respective inhibitor and a substrate concentration at 1 KM. For detailed investigations of the inhibition and determination of Ki-values, influence of the inhibitor on the auxiliary enzymes was investigated first. In every case, there was no influence on either enzyme detected, thus enabling the reliable determination of the QC inhibition. The inhibitory constant was evaluated by fitting the set of progress curves to the general equation for competitive inhibition using GraFit software.

[1] = compound from preparative synthesis, purified by chromatography, fluorescent assay, read-out: IC50 hQC

Chain of hQC (Q16769 29-361): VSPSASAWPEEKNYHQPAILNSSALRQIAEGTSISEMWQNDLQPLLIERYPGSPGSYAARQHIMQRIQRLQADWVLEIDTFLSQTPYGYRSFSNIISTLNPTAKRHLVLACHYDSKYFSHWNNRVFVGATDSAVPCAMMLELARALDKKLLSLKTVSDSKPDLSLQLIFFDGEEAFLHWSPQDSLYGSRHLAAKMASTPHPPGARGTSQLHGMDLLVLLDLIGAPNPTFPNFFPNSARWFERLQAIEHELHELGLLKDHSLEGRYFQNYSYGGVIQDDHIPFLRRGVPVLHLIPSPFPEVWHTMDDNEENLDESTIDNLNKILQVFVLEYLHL

Row | SMILES | IC50 (read-out: IC50) [µM] | IC50 [1] [µM]
1 | O=C(C/N=C1\NC(=S)N(c2ccc3nc[nH]c3c2)C1c1cc(Br)cs1)N1CCc2ccccc2C1 (stereo not drawn) [Compound 182, 2-(1-(1H-benzo[d]imidazol-6-yl)-5-(4-bromothiophen-2-yl)-2-thioxoimidazolidin-4-ylideneamino)-1-(3,4-dihydroisoquinolin-2(1H)-yl)ethanone] | 1.3 | –
2 | O=C1N/C(=N/C2CC2)C(c2ccc(Br)cc2)N1c1ccc2nc[nH]c2c1 (stereo not drawn) [Compound 310, 1-(3H-Benzoimidazol-5-yl)-5-(4-bromo-phenyl)-4-cyclopropylimino-imidazolidin-2-one] | 0.4 | –
3 | O=C1N/C(=N\C2CCCCC2)C(c2cc(F)cc(F)c2)N1CCCn1ccnc1 (stereo not drawn) [Compound 4, 4-Cyclohexylimino-5-(3,5-difluoro-phenyl)-1-(3-imidazol-1-yl-propyl)-imidazolidin-2-one] | 8.1 | –
4 | O=C1N/C(=N\c2ccc3c(c2)OCCO3)C(c2cccc(Br)c2)N1c1ccc2nc[nH]c2c1 (stereo not drawn) [Compound 334, 1-(3H-Benzoimidazol-5-yl)-5-(3-bromo-phenyl)-4-2,3-dihydro-benzo1,4dioxin-6-ylimino-imidazolidin-2-one] | 0.4 | –
5 | O=C1N/C(=N/Cc2cccnc2)C(c2ccc3ccccc3c2)N1c1ccc2[nH]cnc2c1 (stereo not drawn) [Compound 221, 1-(1H-Benzoimidazol-5-yl)-5-naphthalen-2-yl-4-pyridin-3-ylmethylimino-imidazolidin-2-one] | 6.7 | –
6 | O=C1N/C(=N\c2ccc3c(c2)OCCO3)C(C2CCC=CO2)N1CCCn1ccnc1 (stereo not drawn) [Compound 30, 4-2,3-Dihydro-benzo1,4dioxin-6-ylimino-5-(3,4-dihydro-2H-pyran-2-yl)-1-(3-imidazol-1-yl-propyl)-imidazolidin-2-one] | 6.7 | –
7 | C/N=C1\NC(=O)N(c2ccc3[nH]cnc3c2)C1c1coc2ccc(C)cc2c1=O (stereo not drawn) [Compound 328, 1-(1H-Benzoimidazol-5-yl)-4-methylimino-5-(6-methyl-4-oxo-4H-chromen-3-yl)-imidazolidin-2-one] | 1.3 | –
8 | S=C1N/C(=N\C2CCCc3ccccc32)C(c2cccc(Br)c2)N1c1ccc2[nH]cnc2c1 (stereo not drawn) [Compound 161, 1-(1H-Benzoimidazol-5-yl)-5-(3-bromo-phenyl)-4-1,2,3,4-tetrahydro-naphthalen-1-ylimino-imidazolidine-2-thione] | 5.8 | –
9 | C/N=C1/NC(=O)N(CCCn2ccnc2)C1C1CCC=CO1 (stereo not drawn) [Compound 15, 5-(3,4-Dihydro-2H-pyran-2-yl)-1-(3-imidazol-1-yl-propyl)-4-methylimino-imidazolidin-2-one] | 7.6 | –
10 | CCc1ccccc1/N=C1\NC(=S)N(c2ccc3[nH]cnc3c2)C1c1ccccc1 (stereo not drawn) [Compound 317, 1-(1H-Benzoimidazol-5-yl)-4-2-ethyl-phenylimino-5-phenyl-imidazolidine-2-thione] | 9.4 | –
11 | S=C1N/C(=N\C(Cc2ccccc2)c2ccccc2)C(c2cc3c(cc2Br)OCO3)N1c1ccc2[nH]cnc2c1 (stereo not drawn) [Compound 139, 1-(1H-Benzoimidazol-5-yl)-5-(6-bromo-benzo1,3dioxol-5-yl)-4-1,2-diphenyl-ethylimino-imidazolidine-2-thione] | 9.4 | –
12 | O=C1N/C(=N/Cc2ccccc2)C(c2ccc(O)cc2)N1CCCn1ccnc1 (stereo not drawn) [Compound 99, 4-Benzylimino-5-(4-hydroxy-phenyl)-1-(3-imidazol-1-yl-propyl)-imidazolidin-2-one] | 6.7 | –
13 | CCCCC1/C(=N\c2ccc3c(c2)OCCO3)NC(=O)N1CCCn1ccnc1 (stereo not drawn) [Compound 35, 5-Butyl-4-2,3-dihydro-benzo1,4dioxin-6-ylimino-1-(3-imidazol-1-yl-propyl)-imidazolidin-2-one] | 5.8 | –
14 | CSc1ccc(C2/C(=N\Cn3nnc4ccccc43)NC(=S)N2c2ccc3[nH]cnc3c2)cc1 (stereo not drawn) [Compound 151, 1-(1H-Benzoimidazol-5-yl)-4-benzotriazol-1-ylmethylimino-5-(4-methylsulfanyl-phenyl)-imidazolidine-2-thione] | 0.004 | –
15 | CCC1/C(=N\CCc2c[nH]c3ccccc23)NC(=O)N1CCCn1ccnc1 (stereo not drawn) [Compound 60, 5-Ethyl-1-(3-imidazol-1-yl-propyl)-4-2-(1H-indol-3-yl)-ethylimino-imidazolidin-2-one] | 5.8 | –
16 | O=C1CCCN1CCC/N=C1\NC(=S)N(c2ccc3[nH]cnc3c2)C1c1cc2ccccc2s1 (stereo not drawn) [Compound 252, 1-(3-(5-(benzo[b]thiophen-2-yl)-1-(1H-benzo[d]imidazol-5-yl)-2-thioxoimidazolidin-4-ylideneamino)propyl)pyrrolidin-2-one] | 7.6 | –

Row | SMILES | IC50 (read-out: IC50) [µM] | IC50 [1] [µM]
17 | Cc1ccc(C2/C(=N\CCc3c[nH]c4ccccc34)NC(=O)N2c2ccc3[nH]cnc3c2)c(C)c1 (stereo not drawn) [Compound 219, 1-(1H-Benzoimidazol-5-yl)-5-(2,4-dimethyl-phenyl)-4-2-(1H-indol-3-yl)-ethylimino-imidazolidin-2-one] | 0.004 | –
18 | O=C1N/C(=N\CCC(c2ccccc2)c2ccccc2)C(c2cccc(F)c2F)N1CCCn1ccnc1 (stereo not drawn) [Compound 107] | 6.7 | –
19 | O=C1N/C(=N\C2CCCC2)C(c2ccc(Cl)c(F)c2)N1c1ccc2[nH]cnc2c1 (stereo not drawn) [Compound 318, 1-(1H-Benzoimidazol-5-yl)-5-(4-chloro-3-fluoro-phenyl)-4-cyclopentylimino-imidazolidin-2-one] | 0.004 | –
20 | CC1=CC(C)C(C2/C(=N/C(C)C)NC(=O)N2c2ccc3[nH]cnc3c2)CC1 (stereo not drawn) [Compound 254, 1-(1H-Benzoimidazol-5-yl)-5-(2,4-dimethyl-cyclohex-3-enyl)-4-(isopropylimino)-imidazolidin-2-one] | 0.004 | 0.997
21 | O=C1N/C(=N/CCc2c[nH]c3ccccc23)C(C2CCC=CO2)N1CCCn1ccnc1 (stereo not drawn) [Compound 51, 5-(3,4-Dihydro-2H-pyran-2-yl)-1-(3-imidazol-1-yl-propyl)-4-2-(1H-indol-3-yl)-ethylimino-imidazolidin-2-one] | 5.8 | –
22 | CCCC1/C(=N\CCC(c2ccccc2)c2ccccc2)NC(=O)N1CCCn1ccnc1 (stereo not drawn) [Compound 104, 4-3,3-Diphenyl-propylimino-1-(3-imidazol-1-yl-propyl)-5-propyl-imidazolidin-2-one] | 9.4 | –
23 | O=C1N/C(=N/CCc2cccs2)C(c2ccc(Cl)c(F)c2)N1CCCn1ccnc1 (stereo not drawn) [Compound 42, 5-(4-Chloro-3-fluoro-phenyl)-1-(3-imidazol-1-yl-propyl)-4-2-thiophen-2-yl-ethylimino-imidazolidin-2-one] | 5.8 | –
24 | O=C(C/N=C1/NC(=O)N(CCCn2ccnc2)C1c1ccco1)N1CCc2ccccc2C1 (stereo not drawn) [Compound 73, 4-2-(3,4-Dihydro-1H-isoquinolin-2-yl)-2-oxo-ethylimino-5-furan-2-yl-1-(3-imidazol-1-yl-propyl)-imidazolidin-2-one] | 6.7 | –
25 | CC1/C(=N/C(c2ccccc2)c2ccccc2)NC(=O)N1CCCn1ccnc1 (stereo not drawn) [Compound 80, 4-Benzhydrylimino-1-(3-imidazol-1-yl-propyl)-5-methyl-imidazolidin-2-one] | 9.4 | –
26 | COC(=O)C(C)/N=C1/NC(=S)N(c2ccc3[nH]cnc3c2)C1c1c(F)ccc(Cl)c1F (stereo not drawn) [Compound 268, Methyl 2-(1-(1H-benzo[d]imidazol-5-yl)-5-(3-chloro-2,6-difluorophenyl)-2-thioxoimidazolidin-4-ylideneamino)propanoate] | 9.4 | –
27 | O=C1N/C(=N/CCc2cccs2)C(c2ccc(O)cc2)N1CCCn1ccnc1 (stereo not drawn) [Compound 45, 5-(4-Hydroxy-phenyl)-1-(3-imidazol-1-yl-propyl)-4-2-thiophen-2-yl-ethylimino-imidazolidin-2-one] | 4.9 | –
28 | O=C1NC(=NCC2CCCO2)C(c2cc(F)cc(F)c2)N1CCCn1ccnc1 (stereo not drawn) [Compound 115, 5-(3,5-Difluoro-phenyl)-1-(3-imidazol-1-yl-propyl)-4-tetrahydro-furan-2-ylmethylimino-imidazolidin-2-one] | 7.6 | –
29 | CC(/N=C1\NC(=O)N(CCCn2ccnc2)C1c1ccccc1Cl)c1ccccc1 (stereo not drawn) [Compound 10, 5-(2-Chloro-phenyl)-1-(3-imidazol-1-yl-propyl)-4-1-phenyl-ethylimino-imidazolidin-2-one] | 6.2 | –
30 | S=C1NC(=NCCc2cccs2)C(c2cc3c(cc2Br)OCO3)N1c1ccc2nc[nH]c2c1 (stereo not drawn) [Compound 137, 1-(3H-Benzoimidazol-5-yl)-5-(6-bromo-benzo1,3dioxol-5-yl)-4-2-thiophen-2-yl-ethylimino-imidazolidin-2-thione] | 4 | –
31 | O=C1CCCN1CCC/N=C1/NC(=O)N(c2ccc3[nH]cnc3c2)C1c1ccc2c(c1)OCO2 (stereo not drawn) [Compound 168, 5-Benzo[1,3]dioxol-5-yl-1-(1H-benzoimidazol-5-yl)-4-(3-(2-oxo-pyrrolidin-1-yl)-propylimino)-imidazolidin-2-one] | 0.004 | 0.0274
